Measured values: patent publication US9359422B2, “Single chain relaxin polypeptides” (The University of Queensland, priority 2010, dated 2016)
Entries after “also recorded” stand apart in the source; their conditions may differ. Read-outs that look alike come from different tables or passages of the source. Where no end group is shown, it is not given here.

What was measured:
human RXFP3 [1] = biological target: T1, human RXFP3 (Homo sapiens, UniProt Q9NSD7); assay: RXFP3 competition binding assay with Eu-DTPA-R3/I5; conditions: for binding affinity for RXFP3 (in words): RXFP3-expressing cells, Eu-labelled H3/INSL5 chimeric polypeptide
T1 construct: expressed in transfected cells
T1 sequence (Q9NSD7 1-469): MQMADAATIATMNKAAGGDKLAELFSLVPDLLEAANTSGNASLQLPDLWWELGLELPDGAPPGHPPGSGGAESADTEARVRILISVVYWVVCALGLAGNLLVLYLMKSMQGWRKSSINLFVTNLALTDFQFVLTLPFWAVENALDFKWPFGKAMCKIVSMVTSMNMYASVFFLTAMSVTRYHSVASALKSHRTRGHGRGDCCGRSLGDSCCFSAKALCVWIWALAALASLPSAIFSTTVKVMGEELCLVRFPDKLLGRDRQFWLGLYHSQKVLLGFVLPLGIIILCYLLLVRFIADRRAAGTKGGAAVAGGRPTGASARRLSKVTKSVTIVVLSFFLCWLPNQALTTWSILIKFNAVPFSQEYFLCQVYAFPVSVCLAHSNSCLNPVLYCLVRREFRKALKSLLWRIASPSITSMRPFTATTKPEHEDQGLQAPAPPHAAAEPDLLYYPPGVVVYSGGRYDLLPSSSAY

human RXFP3 [2] = biological target: T1, human RXFP3; assay: cAMP activity assay (pCRE β-galactosidase reporter, forskolin-induced) in CHO cells transfected with RXFP3; type: cell-based; conditions: for agonist activity at RXFP3 (inhibition of cAMP activity): RXFP3-expressing cells, 5 μM forskolin; for antagonist activity at RXFP3 (rescue of cAMP levels): in the presence of 10 nM H3 relaxin
Experimental: For activity determination, a cAMP activity assay was used. CHO cells were cultured in a 1:1 mixture of Dulbecco's modified Eagle's medium and HAMNS-F12 medium supplemented with 10% fetal bovine serum, 1% L-glutamine and 1% penicillin/strepicillin and cultivated in a humidified chamber with 5% CO2 at 37.8° C. 20 000 cells per well were seeded into a pre-coated poly-L lysine 96-wells plate. Cells were incubated over night before being transfected with the mammalian expression vector pcDNA3.1(+)zeo (UMR cDAN Resource Center) carrying human RXFP3 together with a pCRE β-galactosidase reporter plasmid using TransIT-CHO, OptiMEM and CHO-MOJO reagents. Cells were then incubated over night in a humidified chamber with 5% CO2 at 37.8° C. before cAMP assays were performed. […] In brief, the cells were incubated with the peptide for 6 h in a humidified chamber before the media was aspirated off and the cells were frozen at −80° C. To develop the results, the cells were lysed by addition of 25 μl buffer A (5 ml 10 mM sodium phosphate buffer, pH 8.0, 1 ml 0.2 mM MgSO4 and 50 μl 0.01 mM MnCl2 in 44 ml H2O) to each well and incubated on a shaker for 10 min at room temperature before addition of 100 μl Buffer B (5 ml 100 mM sodium phosphate buffer, pH 8.0, 1 ml 2 mM MgSO4, 50 μl 0.1 mM MnCl2, 2.5 ml 0.5% Triton X-100 and 0.16 ml 40 mM β-mercaptoethanol in 41.3 ml H2O) followed by a 10 min incubation. The substrate, chlorophenol red-β-D-galactopyranoside (CPRG), was then added to each well and the reaction was left at room temperature until a absorbance of <1 AU at 570 nm was reached.

rats = type: in vivo, rat; conditions: 10 μg, 0 to 45 minutes post administration, vs vehicle
Excerpt: The inventors also carried out experiments to determine if the effects may be due to disruption in locomotor skills.

human RXFP1 = biological target: T2, human RXFP1 (Homo sapiens, UniProt Q9HBX9); assay: RXFP1 competition binding assay with Eu-DTPA-H2 relaxin; conditions: HEK-293T cells transfected with RXFP1, Eu-DTPA-H2 relaxin
T2 construct: expressed in transfected cells; host or cells: HEK-293T
T2 sequence (Q9HBX9 1-757): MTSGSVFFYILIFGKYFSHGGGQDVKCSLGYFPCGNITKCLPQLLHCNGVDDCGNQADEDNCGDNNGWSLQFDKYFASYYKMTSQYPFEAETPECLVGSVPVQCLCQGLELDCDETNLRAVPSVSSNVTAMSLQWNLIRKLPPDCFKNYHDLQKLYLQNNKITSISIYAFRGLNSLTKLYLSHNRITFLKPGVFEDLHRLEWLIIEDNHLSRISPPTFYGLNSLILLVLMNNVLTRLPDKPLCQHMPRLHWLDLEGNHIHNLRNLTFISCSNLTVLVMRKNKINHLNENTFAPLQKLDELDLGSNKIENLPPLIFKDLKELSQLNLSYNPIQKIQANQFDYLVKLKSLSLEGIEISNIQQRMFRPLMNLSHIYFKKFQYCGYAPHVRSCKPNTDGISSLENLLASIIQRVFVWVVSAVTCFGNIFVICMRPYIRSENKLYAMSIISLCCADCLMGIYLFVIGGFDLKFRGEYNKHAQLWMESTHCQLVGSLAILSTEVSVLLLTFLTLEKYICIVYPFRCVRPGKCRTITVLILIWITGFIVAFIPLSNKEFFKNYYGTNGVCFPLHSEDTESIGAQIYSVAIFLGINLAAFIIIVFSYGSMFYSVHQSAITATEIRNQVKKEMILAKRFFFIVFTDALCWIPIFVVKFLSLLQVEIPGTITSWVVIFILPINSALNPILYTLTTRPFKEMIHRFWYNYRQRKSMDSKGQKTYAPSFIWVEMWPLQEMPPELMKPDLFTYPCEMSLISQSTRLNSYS
Experimental: Binding assays were carried out as follows. HEK-293T cells stably transfected with human RXFP3 were plated out onto pre-coated poly-L-lysine 96-well viewplates with a density of 50 000 cells per well. Media was aspirated off and the cells were washed with PBS before different concentrations of peptide diluted in binding buffer (100 mM HEPES, pH 7.6, 5 mM KCl, 1.3 mM MgSO4, 1.5 mM NaOAc, 1 mM EDTA and 10 mM glucose) and 300 μM of Eu-DTPA-R3/15 was added to each well. The cells were incubated at room temperature for 60 min before the peptide solution was aspirated off and the cells washed with PBS. DELFIA enhancement solution was then added and the cells incubated for a further 30-60 min at room temperature, after which the fluorescence was measured using a time resolved fluorometer with excitation at 340 nm an emission at 614 nm.
Similarly, the B1-22R single chain polypeptide was tested for its ability to activate RXFP1 or antagonise the action of H2 relaxin at this receptor. To do so, binding assays were carried out essentially as described above in Example 2 except using HEK-293T cells transfected with RXFP1 and 300 μM of Eu-DTPA-H2 relaxin.

RXFP4 = biological target: T3, RXFP4 (Homo sapiens, UniProt Q8TDU9); assay: cAMP activity assay in RXFP4-expressing cells; type: cell-based
T3 construct: expressed in transfected cells; host or cells: RXFP4-expressing cells

[3] = tested on: alcohol-preferring (iP) rats; assay: Operant alcohol self-administration in alcohol-preferring (iP) rats; type: in vivo, rat; conditions: 10% ethanol, FR3, 3 μg, 10 μg or 30 μg via lateral cerebral ventricle cannula, vs normal and vehicle responding
Experimental: Rats were trained to stably administer 10% ethanol during daily operant session (n=18 rats) and then implanted with guide cannulae aimed at the lateral cerebral ventricle. Following a 7 day recovery period, the rats were re-stabilised on alcohol self-administration under fixed-ratio 3 (FR3) conditions and the effect of B1-22R was examined.
Rats were administered 3 μg, 10 μg or 30 μg of the B1-22R antagonist. […] The effect observed was dose-dependent.

[4] = HEK-293T cells stably transfected with human RXFP3, Eu-DTPA-R3/I5 tracer, n = 3
[5] = HEK-293T cells stably transfected with human RXFP3, Eu-DTPA-R3/I5 tracer, n = 3, read-out: pIC50 (n = 3), binding affinities of single chain relaxin polypeptides for RXFP3 (converted)

T3 sequence (Q8TDU9 whole entry, species assumed): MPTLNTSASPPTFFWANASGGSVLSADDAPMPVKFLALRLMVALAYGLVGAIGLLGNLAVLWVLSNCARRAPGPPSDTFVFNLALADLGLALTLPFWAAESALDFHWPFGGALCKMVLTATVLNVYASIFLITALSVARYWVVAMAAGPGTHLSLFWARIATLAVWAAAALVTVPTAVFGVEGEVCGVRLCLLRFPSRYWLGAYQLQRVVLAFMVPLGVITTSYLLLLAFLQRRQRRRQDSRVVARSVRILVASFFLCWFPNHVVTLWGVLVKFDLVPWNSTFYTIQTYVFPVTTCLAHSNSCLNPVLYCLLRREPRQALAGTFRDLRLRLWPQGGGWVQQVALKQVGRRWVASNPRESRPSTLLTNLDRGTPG

Substance	agonist activity at RXFP3 (inhibition of cAMP activity) (human RXFP3 [2])	IC50 (human RXFP3 [1]; [5]) [nM]	binding affinity for RXFP3 (in words) (human RXFP3 [1])	further results
VRLSGREFIRAVIFTSR [H3 B7-22R]	failed to show any agonist activity		failed to bind RXFP3 at any detectable level	pIC50 (n = 3), binding affinities of single chain relaxin polypeptides for RXFP3 (human RXFP3 [1]; [4]): No activity
H-AAPYGVRLSGREFIRAVIFTSR-NH2 [H3 B2-22R]	failed to show any agonist activity	87.1	binding affinities for RXFP3 similar to that of B1-22R	
H-RAAPYGVRLSGREFIRAVIFTSGGSRW-OH [H3 B-chain C10/22S, reference compound]			significantly less efficient in binding this receptor	
H-YGVRLSGREFIRAVIFTSR-NH2 [H3 B5-22R]	failed to show any agonist activity	427	binding affinities for RXFP3 similar to that of B1-22R	
RAAPYGVRLSGREFIRAVIFTS [H3 B1-22]			significantly less efficient in binding this receptor	pIC50 (n = 3), binding affinities of single chain relaxin polypeptides for RXFP3 (human RXFP3 [1]; [4]): No activity
H-PYGVRLSGREFIRAVIFTSR-NH2 [H3 B4-22R]	failed to show any agonist activity	219	binding affinities for RXFP3 similar to that of B1-22R	
H-RAAPYGVRLSGREFIRAVIFTSR-NH2 [H3 B1-22R]	no such inhibition			locomotor skills (floor plane moves or floor plane distance) (rats): No significant difference; affinity for the RXFP1 receptor (human RXFP1): very poor affinity; IC50 (human RXFP3 [1]): 17.8 nM; agonist activity at RXFP4 (RXFP4; RXFP4-expressing cells, cAMP): no agonist activity; antagonist activity at RXFP4 (RXFP4; block of INSL5 or H3 relaxin stimulated RXFP4 activation): fails to show any observable antagonist activity; antagonist activity at RXFP3 (rescue of cAMP levels) (human RXFP3 [2]): rescued cAMP levels towards 100%; antagonist activity at RXFP3 (rescue of cAMP levels) (human RXFP3 [2]; listed as H1-B22R): greatest antagonist activity; ethanol lever presses [3]: significant decrease in ethanol lever presses; also recorded: dose-dependent
H-RAAPYGVRLAGREFIRAVIFTAR-NH2 [H3 B1-22R C10/22A]	failed to show any agonist activity	148	binding affinities for RXFP3 similar to that of B1-22R	antagonist activity at RXFP3 (rescue of cAMP levels) (human RXFP3 [2]): lowest antagonist activity

Second part, led by results:

agonist activity at RXFP3 (inhibition of cAMP activity) (human RXFP3 [2])	IC50 (human RXFP3 [1]; [5]) [nM]	Substance	binding affinity for RXFP3 (in words) (human RXFP3 [1])	further results
failed to show any agonist activity	195	H-APYGVRLSGREFIRAVIFTSR-NH2 [H3 B3-22R]	binding affinities for RXFP3 similar to that of B1-22R	
	2510	RAAPYGVRLSGREFIRAVIFTSGGSRW-OH [H3 B-chain C10/22S, reference compound]		
failed to show any agonist activity	468	H-GVRLSGREFIRAVIFTSR-NH2 [H3 B6-22R]	binding affinities for RXFP3 similar to that of B1-22R	
failed to show any agonist activity	347	H-RAAPYGVRLSGREFIRAVIFTSR-OH [H3 B1-22R Acid]	binding affinities for RXFP3 similar to that of B1-22R	
